Experimental data taken from patent US8835644B2, “Broad spectrum benzothiophene-nitrothiazolide and other antimicrobials” (University of Virginia Patent Foundation, priority 2009, dated 2014).
In brackets after ≈: the same amount, converted by molar mass. Where two headings read alike, the source gives them in different places.

What was measured:
[1] = test system: H. pylori; assay: MIC testing by broth dilution, H. pylori; assay type: cell-based, Helicobacter pylori
In short: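 Helicobacter pylori was tested using a standard broth dilution method in 96 well microplates, each well holding a standard dilution of the organism in 100 microliters of Brain Heart Infusion. Compounds started at 32 μg/ml in 200 microliters in the first well and were serially diluted from 32 to 0.06. Wells were read visually at 24 h, and the MIC was the well with no growth.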

[2] = test system: EAEC 042 (AAF/II fimbriae); assay: Hemagglutination of sheep erythrocytes, EAEC 042; assay type: cell-based, Escherichia coli; settings: EAEC 042 grown in MinA-G with 20 μg/ml NTZ; note: key: +++ = strong hemagglutination reaction; + weak; − no hemagglutination
Method: HA assays were performed in 96-well microplates as described in (1). Bacteria grown over night without shaking ([…]) were suspended in PBS and diluted to OD660 of […] was mixed with an equal volume of 3% (vol/vol) sheep erythrocyte suspension containing 1% mannose, except when type I fimbriae producing strains were assayed. In the latter, bacteria were grown statically in LB medium (with and without NTZ) for 48 h and HA was determined with guinea pig erythrocytes. HA reactions were incubated at 4° C. for […] HA was determined visually against controls receiving no NTZ. All assays were prepared in triplicate and repeated twice.

[3] = test system: EAEC strains 042 and 17-2; settings: previous studies (38), cited from earlier work
[4] = test system: EAEC strain 042; assay: Quantitative biofilm assay, EAEC; assay type: cell-based, Escherichia coli
Method: A quantitative biofilm assay was used to determine the effect of NTZ on biofilm formation (41). Strain 042 was grown overnight at 37° C. with shaking and inoculated 1:100 in 200 μl culture medium in Costar 96-well, flat-bottom, polystyrene microtiter plates containing appropriate concentrations of NTZ. Plates were incubated statically at 37° C. in a humidified incubator. At 24 h, bacterial growth was measured by either transferring […] aliquots to another microtiter plate to determine turbidity or by diluting 100 μl aliquots 1:100 in 9.9 ml PBS for quantitative plate counts on LB medium. Bacterial counts in triplicate are reported as cfu/ml. Biofilm was visualized following staining with 0.5% crystal violet (41) and the absorbance was read at 570 nm using a microplate reader (Molecular Dynamics). All experiments were in triplicate and reported as mean and standard deviation.
Assays were initially performed with and without 25 μg/ml NTZ using five different growth media: DMEM, DMEM with 0.4% glucose, LB, LB with 0.4% glucose, and our chemically defined medium containing 1% glucose. E. coli DH5αt served as a negative control for biofilm formation. Assays were then run with increasing concentrations of NTZ (0, 5, 10, 15, 20, 25 μg/ml) both in the chemically defined medium and in DMEM with 0.4% glucose. […]

[5] = test system: S. epidermidis 9142; assay: Biofilm dispersal assay; assay type: cell-based, Staphylococcus epidermidis; settings: drug added to 4 h biofilm
[6] = test system: MRSA; assay: MIC testing by broth dilution, MRSA; assay type: cell-based, Staphylococcus aureus
In short: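 Values are broth-dilution MICs, defined as the well showing no growth on visual reading after 24 h; the tested range was 32 to 0.06 μg/ml, in organism-specific media (LB, Trypticase Soy, Brain Heart Infusion). The C. difficile entries come instead from anaerobic Kirby-Bauer disk zones, normalised to NTZ.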

[7] = test system: C. difficile; assay: MIC by agar dilution, C. difficile; assay type: cell-based, Clostridium difficile
[8] = test system: S. epidermidis 9142; assay: Catheter adherence model; assay type: cell-based, Staphylococcus epidermidis; settings: 24 h, dose dependent, within the IC50 range
Method: An overnight culture of S. epidermidis 9142 was used to inoculate fresh TSB medium to a final OD600 of 0.01 in a volume of 3 ml in 15 ml screw capped tubes. Sterile sheets of polyurethane were divided into 1 cm square pieces and placed into tubes containing different concentrations of NTZ or controls containing DMSO. The tubes were incubated for 24 h with shaking. Each catheter portion was washed 3 times with sterile PBS, suspended in 4 ml sterile PBS and sonicated for 10 min in a sonic water bath. 10 μl of the sonicated fluid was diluted in fresh PBS and plated onto TSA plates and incubated at 37° C. overnight. Bacteria were enumerated (triplicate plates) and the mean and standard deviation were determined and reported as CFU/ml. Viability effects were corrected for by plating the supernatants from the 3 ml experiment for total bacterial counts.

[9] = Solubility in water; assay type: physicochemical; settings: water
[10] = test system: C. difficile; assay: Disk diffusion (Kirby Bower), C. difficile; assay type: cell-based, Clostridium difficile; settings: for Disk Diff (%) C. difficile: Nitazoxanide = 100
In short: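 Media: LB (E. coli), Trypticase Soy (S. epidermidis), BHI (C. jejuni); plank cells. C. difficile on Wilkins Chalgrin agar, anaerobic Kirby-Bauer disks, zone vs NTZ zone ratio.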

## CC(=O)Oc1ccccc1C(=O)Nc1ncc([N+](=O)[O-])s1 [Nitazoxanide, 2-(acetyloxy)-N-(5-nitro-2-thiazolyl)benzamide, reference compound]
[1]; 2-amino-3,5-dinitrothiophene analogues table, read-out: MIC H. pylori
  MIC: 13.0 µM (≈ 3.99 µg/mL)
[1]; Helicobacter pylori, Furan analogues table, read-out: MIC H. pylori
  MIC: 13 µM (≈ 3.99 µg/mL)
[1]; Helicobacter pylori, broth dilution, Brain Heart Infusion, 24 h, read-out: MIC (μM) H. pylori
  MIC: 13 µM (≈ 3.99 µg/mL)
[1]; Thiophene analogues table, read-out: MIC H. pylori
  MIC: 13.0 µM (≈ 3.99 µg/mL)
[2]
  HA (sheep erythrocytes), bacterial OD660 0.5: −
  HA (sheep erythrocytes), bacterial OD660 1.0: −
  HA (sheep erythrocytes), bacterial OD660 1.5: +
[3]; E. coli papillation assay
  Concentrations inhibitory for growth on MinA base medium: higher than 15 μg/ml
[3]
  MIC in LB medium, previous studies: > 64 mg/L
[4]; EAEC 042, MinA-G, 20 μg/ml
  Inhibition of biofilm formation: almost complete inhibition
[4]; Escherichia coli, EAEC 042, DMEM and MinA-G media, read-out: IC50 biofilm production
  IC50: ~12 mg/L (≈ 39.1 µM)
[5]
  Dispersal of preformed biofilm: not dispersive
[6]; 2-amino-3,5-dinitrothiophene analogues table, read-out: MIC MRSA
  MIC: 39.1 µM (≈ 12 µg/mL)
[6]; Staphylococcus aureus, MRSA, broth dilution, Trypticase Soy, 24 h, read-out: MIC (μM) MRSA
  MIC: 39.1 µM (≈ 12 µg/mL)
[6]; Thiophene analogues table, read-out: MIC MRSA
  MIC: 39.1 µM (≈ 12 µg/mL)
[7]; 2-amino-3,5-dinitrothiophene analogues table, read-out: MIC C. difficile
  MIC: 52.1 µM (≈ 16 µg/mL)
[7]; Clostridioides difficile, Furan analogues table, read-out: MIC C. difficile
  MIC: 52.1 µM (≈ 16 µg/mL)
[7]; Clostridioides difficile, agar dilution, anaerobic, Wilkins Chalgrin agar, read-out: MIC (μM) C. difficile
  MIC: 52.1 µM (≈ 16 µg/mL)
[7]; Thiophene analogues table, read-out: MIC C. difficile
  MIC: 52.1 µM (≈ 16 µg/mL)
[8]
  Attachment to catheter material: inhibited attachment
[9]
  solubility: < 0.032 mg/mL
[10]; 2-amino-3,5-dinitrothiophene analogues table
  Disk Diff (%) C. difficile: 100%
[10]; Furan analogues table
  Disk Diff (%) C. difficile: 100%
[10]; Thiophene analogues table
  Disk Diff (%) C. difficile: 100%
[10]; zone of inhibited growth as relative ratio to the zone for NTZ
  Disk Diffusion (%) C. difficile: 100%
